Assay results as given in article PMC4222822, “Discovery and Characterization of a Potent and Selective Inhibitor of Aedes aegypti Inward Rectifier Potassium Channels” (PLoS ONE, 2014).

Tests used:
AeKir2B = AeKir2B (Aedes aegypti, UniProt L0EQ40); assay: Two-electrode electrophysiology of Xenopus oocytes expressing AeKir2B; type: cell-based; conditions: inward current at −140 mV, 95% CI: 31.7–64.2 µM, n = 4–5 oocytes per concentration, read-out: IC50 of AeKir2B current inhibition
Procedure: AeKir1 and AeKir2B channels were expressed heterologously in Xenopus laevis oocytes as described previously. In brief, defolliculated Xenopus oocytes (purchased from Ecocyte Bioscience, Austin, TX) were injected with 10 ng (0.35 ng/nL) of either AeKir1 or AeKir2B cRNA and cultured for 3–7 days in OR3 media at 18°C. Oocytes injected with 28 nl of nuclease-free H2O served as controls.
All electrophysiological experiments on Xenopus oocytes were performed at room temperature. When present, VU625 was dissolved in solution III or solution V to a final concentration of 0.1, 1, 5, 15, or 50 µM (0.05% DMSO). All solutions were delivered by gravity to a RC-3Z oocyte chamber (Warner Instruments, Hamden, CT) via polyethylene tubing at a flow rate of ∼2 ml/min. Solution changes were made with a Rheodyne Teflon 8-way Rotary valve (Model 5012, Rheodyne, Rohnert Park, CA).
Electrophysiological recordings from oocytes were conducted as described previously In brief, each oocyte was transferred to the holding chamber under superfusion with solution I and impaled with two conventional-glass microelectrodes backfilled with 3 M KCl (resistances of 0.5–1.5 MΩ) to measure membrane potential (Vm) and whole-cell membrane current (Im), respectively. […] All Vm and Im values were recorded by a Digidata 1440A Data Acquisition System (Molecular Devices) and the Clampex module of pCLAMP. […]

melatonin MT1 receptor = melatonin MT1 receptor (Homo sapiens, UniProt P48039); assay: Radioligand displacement assay, melatonin MT1 receptor; type: binding, mammalian; conditions: 10 µM VU625
melatonin MT1 receptor, sequence (P48039 whole entry): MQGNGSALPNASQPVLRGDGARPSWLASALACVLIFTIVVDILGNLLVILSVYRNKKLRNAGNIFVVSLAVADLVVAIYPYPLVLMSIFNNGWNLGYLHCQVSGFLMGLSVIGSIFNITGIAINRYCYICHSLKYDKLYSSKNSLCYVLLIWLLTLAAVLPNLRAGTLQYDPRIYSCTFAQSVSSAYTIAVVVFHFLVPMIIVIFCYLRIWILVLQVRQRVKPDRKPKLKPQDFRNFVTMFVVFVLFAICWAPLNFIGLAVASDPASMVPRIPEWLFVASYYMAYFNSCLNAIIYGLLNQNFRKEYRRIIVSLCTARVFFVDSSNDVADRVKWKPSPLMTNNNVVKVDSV

AeKir2B, sequence (L0EQ40 entry or part of it): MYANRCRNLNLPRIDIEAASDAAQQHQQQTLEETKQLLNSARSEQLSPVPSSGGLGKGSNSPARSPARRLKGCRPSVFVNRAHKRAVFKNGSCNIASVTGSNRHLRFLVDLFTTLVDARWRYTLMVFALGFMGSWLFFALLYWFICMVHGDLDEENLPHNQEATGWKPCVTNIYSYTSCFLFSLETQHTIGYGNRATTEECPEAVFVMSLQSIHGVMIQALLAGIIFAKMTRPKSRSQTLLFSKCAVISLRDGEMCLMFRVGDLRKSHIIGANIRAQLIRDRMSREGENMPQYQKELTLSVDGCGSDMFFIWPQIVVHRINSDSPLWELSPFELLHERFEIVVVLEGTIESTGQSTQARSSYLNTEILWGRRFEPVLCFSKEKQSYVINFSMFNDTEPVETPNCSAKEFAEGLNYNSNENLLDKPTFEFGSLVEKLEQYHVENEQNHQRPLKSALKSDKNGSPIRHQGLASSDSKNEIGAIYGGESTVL

CCC(=O)N1c2ccc(S(=O)(=O)Nc3cccc(OC)c3)cc2CC1C (centres unmarked) [VU625, N-(3-methoxyphenyl)-2-methyl-1-propionylindoline-5-sulfonamide]
IC50 (AeKir2B): 45.1 µM
radioligand displacement (melatonin MT1 receptor): 56%
